# Patent publication US20050014280A1, “In vitro method for determining drug permeability using immobilized artificial membrane chromatography” (priority 2003, published 2005)
# Like-named read-outs stand apart in the source and are kept apart here.
# Columns and labels:
# [1] = Caco-2 cell permeability assay (published Pm values); type: in vitro ADME; details: human
# Description: Drug permeability assays using Caco-2 cells are currently widely used. Caco-2 cells are human colon adenocarcinoma cells that differentiate in culture to resemble intestinal epithelial cells.
# The inventors used 21 reference compounds having a single positive charge at the pH at which the chromatography was performed, each having a published known permeability value, Pm, as determined by a Caco-2 cell assay by the various methods set out in references 1-7, below. The conditions used to determine the Caco-2 Pm values were generally similar in the cited references, although certain conditions varied between assays. Generally, the assays were performed at pH 7.4, with the exception of procaine and sumatriptan, for which the pH was 5.5 and 6.5, respectively. Therefore, for the experiments set out below, the pH of the mobile phase was 7.4 for all compounds except procaine (pH 5.5) and sumatriptan (6.5).
# [2] = Immobilized artificial membrane (IAM) HPLC capacity factor; type: physicochemical; details: 37° C.; for k′IAM (capacity factor): 1.0 ml/min, from average of 3 runs
# Description: Sample Preparation: Between 3 and 10 mg of each sample was dissolved in a solution of 10% methanol, 90% water in preparation for injection onto the column.
# HPLC Conditions: A Regis IAM.PC.DD2 column (30 mm×4.6 mm, 12 μm) was used, run at 37° C. at a flow rate of 1.0 ml/min. […] Elution of reference compounds was detected by ultraviolet absorbance at 210 nm.
# Calculation of k′: Sodium nitrate was injected onto the column and the elution time was measured in order to determine the time for the void volume, t0, to pass through the column. Each reference compound was then injected onto the column and retention time, tR was recorded by detecting elution by measuring UV absorbance at 210 nm. The capacity factor, k′, was calculated by determining the adjusted retention time and dividing by the time for void volume elution, according to the formula k′=(tR−t0)/t0.
# Each reference compound was tested three times and an average retention time was used.
# [3] = test system: Caco-2 cells; details: cited from earlier work
# [4] = mobile phase 85% 0.05 M ammonium phosphate pH 7.4 / 15% acetonitrile
# [5] = mobile phase buffer pH 7.4 / 15% acetonitrile
# [6] = Caco 2 donor pH 7.4, log of Pm in 10^−6 cm/s, read-out: Pm (converted)
# [7] = mobile phase buffer pH 5.5 / 15% acetonitrile
# [8] = mobile phase buffer pH 6.5 / 15% acetonitrile
Structure (SMILES),"k′IAM (capacity factor) [2, 4]","logk′IAM [2, 5]",Pm ([3]; Caco 2 donor pH 7.4),"Pm of Caco-2 Assay ([3]; published Caco-2 assay, pH 7.4)",further results
Clc1cccc(Cl)c1N=C1NCCN1 [Clonidine],3.841,0.584,21.8 10^−6 cm/s,21.8 +/− 10^−6 cm/s,"Papp ([1]; Caco-2, pH 7.4): 21.8 ×10⁻⁶ cm/s"
CCN1CCCC1CNC(=O)c1cc(S(N)(=O)=O)ccc1OC (stereo not shown) [Sulpiride],1.804,0.256,–,–,–
COCCc1ccc(OCC(O)CNC(C)C)cc1 (stereo not shown) [Metoprolol],3.600,0.556,23.7 10^−6 cm/s,23.7 +/− 10^−6 cm/s,"Papp ([1]; Caco-2, pH 7.4): 23.7 ×10⁻⁶ cm/s"
C=CCc1ccccc1OCC(O)CNC(C)C (stereo not shown) [Alprenolol],19.190,1.283,25.3 10^−6 cm/s,25.3 +/− 10^−6 cm/s,"Papp [1, 6]: 25.3 ×10⁻⁶ cm/s"
CCN(CC)CCOC(=O)c1ccc(N)cc1 [Procaine],–,–,–,–,"Papp ([1]; Caco 2 donor pH 5.5, log of Pm in 10^−6 cm/s, read-out: Pm (converted)): 1.94 ×10⁻⁶ cm/s; logk′IAM [2, 7]: −0.368; k′IAM (capacity factor) [2, 7]: 0.428; Pm ([3]; Caco 2 donor pH 5.5): 1.94 10^−6 cm/s; Pm of Caco-2 Assay ([3]; published Caco-2 assay, pH 5.5): 1.94 +/− 10^−6 cm/s"
CC(C)(C)NCC(O)COc1cccc2c1CC(O)C(O)C2 (stereo not shown) [Nadolol],1.717,0.235,3.88 10^−6 cm/s,3.88 +/− 10^−6 cm/s,"Papp [1, 6]: 3.88 ×10⁻⁶ cm/s"
COc1ccc([C@@H]2Sc3ccccc3N(CCN(C)C)C(=O)[C@@H]2OC(C)=O)cc1 [Diltiazem],24.145,1.383,–,–,–
CNS(=O)(=O)Cc1ccc2[nH]cc(CCN(C)C)c2c1 [Sumatriptan],–,–,–,–,"Papp ([1]; Caco 2 donor pH 6.5, log of Pm in 10^−6 cm/s, read-out: Pm (converted)): 3 ×10⁻⁶ cm/s; logk′IAM [2, 8]: −0.077; k′IAM (capacity factor) [2, 8]: 0.837; Pm ([3]; Caco 2 donor pH 6.5): 3 10^−6 cm/s; Pm of Caco-2 Assay ([3]; published Caco-2 assay, pH 6.5): 3 10^−6 cm/s"
CC(CCc1ccccc1)NCC(O)c1ccc(O)c(C(N)=O)c1 (stereo not shown) [Labetalol],12.940,1.112,–,–,–
CC(C)(C)NCC(O)c1cc(O)cc(O)c1 (stereo not shown) [Terbutaline],1.276,0.106,1.4 10^−6 cm/s,1.4 +/− 10^−6 cm/s,"Papp [1, 6]: 1.4 ×10⁻⁶ cm/s"
CN/C(=C\[N+](=O)[O-])NCCSCc1ccc(CN(C)C)o1 [Ranitidine],1.232,0.091,0.49 10^−6 cm/s,0.49 +/− 10^−6 cm/s,"Papp [1, 6]: 0.49 ×10⁻⁶ cm/s"
CN(C)CCCN1c2ccccc2CCc2ccccc21 [Imipramine],91.053,1.959,–,–,–
CC(C)NCC(O)COc1cccc2ccccc12 (stereo not shown) [Propranolol],31.148,1.493,32.5 10^−6 cm/s,–,"Papp ([1]; Caco-2, pH 7.4): 32.5 ×10⁻⁶ cm/s; Pm of Caco-2 Assay ([3]; Caco-2, pH 7.4): 1.94 +/− 10^−6 cm/s"
CC(C)NCC(O)COc1cccc2[nH]ccc12 (stereo not shown) [Pindolol],4.712,0.673,16.7 10^−6 cm/s,16.7 +/− 10^−6 cm/s,"Papp ([1]; Caco-2, pH 7.4): 16.7 ×10⁻⁶ cm/s"
